Test results: US10993957B2 (NuCana plc, priority 2011, dated 2021)
Read-outs that look alike come from different tables or passages of the source.

Assays:
L1210/0 = experiment: Cytostatic assay, L1210/0 cells; format: cell-based, murine
From the text: (§1) The cell lines employed were L1210/0 (a leukemia cell line), FM3A/0 (a breast cancer cell line), Cem/0 (an acute lymphoblastic leukemia cell line) and HeLa (a cervical cell line).

L1210/TK^− = experiment: Cytostatic assay, thymidine kinase-deficient L1210/TK^− cells; format: cell-based, murine
Cem/0 = experiment: Cytostatic assay, CEM/0 cells; format: cell-based, human; settings: for CC50: read-out: CC50 Cem/0; for IC50: read-out: IC50 Cem/0
From the text: as §1

HeLa = experiment: Cytostatic assay, HeLa cells; format: cell-based; settings: for CC50: read-out: CC50 HeLa; for IC50: read-out: IC50 HeLa
From the text: as §1

HeLa/TK^− = experiment: Cytostatic assay, HeLa/TK^− cells; format: cell-based; settings: for CC50: read-out: CC50 HeLa/TK^−; for IC50: read-out: IC50 HeLa/TK^−
From the text: as §1

Cem/TK^− = experiment: Cytostatic assay, thymidine kinase-deficient CEM/TK^− cells; format: cell-based, human; settings: for CC50: read-out: CC50 Cem/TK^−; for IC50: read-out: IC50 Cem/TK^−
L1210.Hyor = experiment: Cytostatic assay, Mycoplasma hyorhinis-infected L1210 cells; settings: for % Retention: CC50 L1210 × 100 ÷ CC50 L1210/Hyor
From the text: Murine leukaemia L1210/0 and human T-lymphocyte CEM/0 cells were obtained from the American Type Culture Collection (ATCC) (Rockville, Md.). Human glioblastoma U87 cells were kindly provided by Dr. E. Menue (Institut Pasteur, Paris, France). […] S. Eriksson (currently at Uppsala University, Uppsala, Sweden) and Prof A. Karlsson (Karolinska Institute, Stockholm, Sweden). […] All cells were maintained in Dulbecco's modified Eagle's medium (DMEM) (Invitrogen, Carlsbad, Calif.) with 10% foetal bovine serum (FBS) (Biochrom AG, Berlin, Germany), 10 mM Hepes and 1 mM Sodium Pyruvate (Invitrogen). Cells were grown at 37° C. in a humidified incubator with a gas phase of 5% CO2.
Monolayer cells (U87 and U87.Hyor) were seeded in 48-well microtiter plates (Nunc™, Roskilde, Denmark) at 10,000 cells/well. After 24 hours, an equal volume of fresh medium containing the test compounds was added. On day 5, cells were trypsinized and counted in a Coulter counter (Analis, Suarlée, Belgium). Suspension cells (L1210/0, L1210/TK^−, L1210.Hyor, CEM/0, CEM/TK^−) were seeded in 96-well microtiter plates (Nunc™) at 60,000 cells/well in the presence of a given amount of the test compounds. The cells were allowed to proliferate for 48 h (L1210) or 72 hours (CEM) and were then counted in a Coulter counter.
Samples were also assayed for their % retention of activity in mycoplasma infected cells.
The L1210/0 cell cultures were infected with the mycoplasma species M. hyorhinis (cells designated: L1210.Hyor).

[1] = Mus musculus, L1210/0, Table 1, read-out: CC50 L1210/0
[2] = Mus musculus, L1210, Table 1, read-out: CC50 L1210/TK^−
[3] = Homo sapiens, CCRF-CEM, Table 1
[4] = Homo sapiens, CEM-TK(-), Table 1
[5] = Table 6, read-out: IC50 L1210/0
[6] = Table 7, read-out: IC50 L1210/0
[7] = Table 6, read-out: IC50 L1210/TK^−
[8] = read-out: IC50 L1210.Hyor, Table 7
[9] = Mus musculus, L1210, read-out: CC50 L1210/Hyor
[10] = Mus musculus, L1210, read-out: IC50 L1210.Hyor
[11] = Mus musculus, L1210/0, Table 2, mycoplasma negative cells, read-out: CC50 L1210
[12] = Mus musculus, L1210/0, Table 6, read-out: IC50 L1210/0
[13] = Mus musculus, L1210/0, Table 7, read-out: IC50 L1210/0
[14] = Mus musculus, L1210, Table 6, read-out: IC50 L1210/TK^−
[15] = Homo sapiens, CCRF-CEM, Table 6
[16] = Homo sapiens, CEM-TK(-), Table 6

Compound `CC(C)OC(=O)[C@H](C)NP(=O)(O)OCC1OC(n2cc(F)c(=O)[nH]c2=O)CC1O` (stereo partly drawn) [CPF 438, reference compound] has a CC50 (L1210/0; [1]) of 120 ± 20 nM, a CC50 (L1210/TK^−; [2]) of 51000 ± 9000 nM and a CC50 (Cem/0; [3]) of 2100 ± 600 nM. For the same compound, the CC50 (HeLa; Homo sapiens, HeLa, Table 1) was 3700 ± 500 nM, the CC50 (HeLa/TK^−; Homo sapiens, HeLa, Table 1) was 72000 nM and the CC50 (Cem/TK^−; [4]) was 32000 ± 2000 nM.
`C[C@H](NP(=O)(OC[C@H]1O[C@@H](n2cc(F)c(=O)[nH]c2=O)C[C@@H]1O)Oc1ccccc1)C(=O)OC1CCCCC1` (stereo partly drawn) [CPF 508, 5-Fluoro-2′deoxyuridine-5′-O-[phenyl (cyclohexoxy-L-alaninyl)] phosphate] showed an IC50 (L1210/0; [5]) of 39 ± 1 nM, an IC50 (L1210/0; [6]) of 32 ± 5 nM and an IC50 (L1210/TK^−; [7]) of 140 ± 20 nM. The IC50 (Cem/0; Table 6) was 170 ± 70 nM, the IC50 (HeLa; Table 6) was 180 ± 50 nM and the “IC50(L1210.Hyor)/IC50(L1210/0)” value (L1210.Hyor; Table 7) was 1.25. It also gave an IC50 (L1210.Hyor; [8]) of 40 ± 16 nM, an IC50 (HeLa/TK^−; Table 6) of 5900 ± 400 nM and an IC50 (Cem/TK^−; Table 6) of 1200 ± 10 nM.
`CC(C)C(NP(=O)(OCC1OC(n2cc(F)c(=O)[nH]c2=O)CC1O)Oc1cccc2ccccc12)C(=O)OC1CCCCC1` (stereo not drawn) [CPF 576] was tested, and the CC50 (L1210/0; Table 2, mycoplasma negative cells, read-out: CC50 L1210) was 1400 nM, the IC50 (L1210/0; [5]) was 1100 ± 500 nM and the IC50 (L1210/0; [6]) was 1200 ± 170 nM. For the same compound, the IC50 (L1210/TK^−; [7]) was 35000 ± 8000 nM, the IC50 (Cem/0; Table 6) was 800 ± 280 nM and the IC50 (HeLa; Table 6) was 670 ± 30 nM. The “% Retention” value (L1210.Hyor) was 51%, the “IC50(L1210.Hyor)/IC50(L1210/0)” value (L1210.Hyor; Table 7) was 1.08 and the CC50 (L1210.Hyor; read-out: CC50 L1210/Hyor, Table 2, mycoplasma positive cells) was 2730 nM. The IC50 (L1210.Hyor; [8]) was 1290 ± 290 nM, the IC50 (HeLa/TK^−; Table 6) was 27000 ± 6000 nM and the IC50 (Cem/TK^−; Table 6) was 46000 ± 14000 nM.
Compound `O=C(OCc1ccccc1)C1CCCN1P(=O)(OC[C@H]1O[C@@H](n2cc(F)c(=O)[nH]c2=O)CC1O)Oc1cccc2ccccc12` (stereo partly drawn) [CPF 577, 5-Fluoro-2′-deoxyuridine-5′-O-[1-naphthyl(benzoxy-L-prolinyl)] phosphate] has a CC50 (L1210/0; Mus musculus, L1210/0, read-out: CC50 L1210) of 230 nM, a CC50 (L1210/0; Mus musculus, L1210/0, read-out: CC50 L1210/0) of 210 ± 80 nM and an IC50 (L1210/0; Mus musculus, L1210/0, read-out: IC50 L1210/0, Table 6) of 210 ± 80 nM. The IC50 (L1210/0; Mus musculus, L1210/0, read-out: IC50 L1210/0, Table 7) was 260 ± 55 nM, the CC50 (L1210/TK^−; Mus musculus, L1210, read-out: CC50 L1210/TK^−) was 25000 ± 8000 nM and the IC50 (L1210/TK^−; Mus musculus, L1210, read-out: IC50 L1210/TK^−) was 25000 ± 8000 nM. The CC50 (Cem/0; Homo sapiens, CCRF-CEM) was 890 ± 350 nM, the IC50 (Cem/0; Homo sapiens, CCRF-CEM) was 890 ± 350 nM and the CC50 (HeLa; Homo sapiens, HeLa) was 1200 nM. The IC50 (HeLa; Homo sapiens, HeLa) was 1200 nM, the “% Retention” value (L1210.Hyor) was 36% and the CC50 (L1210.Hyor; [9]) was 630 nM. The IC50 (L1210.Hyor; [10]) was 650 ± 70 nM, the “IC50(L1210.Hyor)/IC50(L1210/0)” value (L1210.Hyor; Table 7) was 2.5 and the CC50 (HeLa/TK^−; Homo sapiens, HeLa) was 26000 ± 1000 nM. For the same compound, the IC50 (HeLa/TK^−; Homo sapiens, HeLa) was 26000 ± 1000 nM, the CC50 (Cem/TK^−; Homo sapiens, CEM-TK(-)) was 32000 ± 9000 nM and the IC50 (Cem/TK^−; Homo sapiens, CEM-TK(-)) was 35000 ± 9000 nM.
Work on `C[C@H](NP(=O)(OC[C@H]1O[C@@H](n2cc(F)c(=O)[nH]c2=O)CC1O)Oc1cccc2ccccc12)C(=O)OC1CCC1` (stereo partly drawn) [CPF 578, 5-Fluoro-2′-deoxyuridine-5′-O-[1-naphthyl-(cyclobutoxy-L-alaninyl)]phosphate] yielded a CC50 (L1210/0; [1]) of 14 ± 3 nM, a CC50 (L1210/0; [11]) of 15 nM and an IC50 (L1210/0; [12]) of 14 ± 3 nM. For the same compound, the IC50 (L1210/0; [13]) was 11 ± 1.4 nM, the CC50 (L1210/TK^−; [2]) was 88 ± 38 nM and the IC50 (L1210/TK^−; [14]) was 88 ± 38 nM. For the same compound, the CC50 (Cem/0; [3]) was 73 ± 18 nM, the IC50 (Cem/0; [15]) was 73 ± 18 nM and the CC50 (HeLa; Homo sapiens, HeLa, Table 1) was 69 ± 3 nM. For the same compound, the IC50 (HeLa; Homo sapiens, HeLa, Table 6) was 69 ± 3 nM, the “% Retention” value (L1210.Hyor) was 31% and the CC50 (L1210.Hyor; [9]) was 48 nM. The IC50 (L1210.Hyor; [10]) was 24 ± 0.14 nM, the “IC50(L1210.Hyor)/IC50(L1210/0)” value (L1210.Hyor; Table 7) was 2.2 and the CC50 (HeLa/TK^−; Homo sapiens, HeLa, Table 1) was 1500 ± 600 nM. It also gave an IC50 (HeLa/TK^−; Homo sapiens, HeLa, Table 6) of 1500 ± 600 nM, a CC50 (Cem/TK^−; [4]) of 1500 ± 300 nM and an IC50 (Cem/TK^−; [16]) of 1500 ± 300 nM.
Work on `C[C@H](NP(=O)(OC[C@H]1O[C@@H](n2cc(F)c(=O)[nH]c2=O)CC1O)Oc1cccc2ccccc12)C(=O)OCC1CC1` (stereo partly drawn) [CPF 579, 5-Fluoro-2′-deoxyuridine-5′-O-[1-naphthyl-(cyclopropylmethanoxy-L-alaninyl)] phosphate] yielded a CC50 (L1210/0; [1]) of 17 ± 7 nM, a CC50 (L1210/0; [11]) of 19 nM and an IC50 (L1210/0; [12]) of 17 ± 7 nM. It also gave an IC50 (L1210/0; [13]) of 14 ± 4.2 nM, a CC50 (L1210/TK^−; [2]) of 120 ± 60 nM and an IC50 (L1210/TK^−; [14]) of 120 ± 60 nM. For the same compound, the CC50 (Cem/0; [3]) was 59 ± 17 nM, the IC50 (Cem/0; [15]) was 59 ± 17 nM and the CC50 (HeLa; Homo sapiens, HeLa, Table 1) was 68 ± 1 nM. The IC50 (HeLa; Homo sapiens, HeLa, Table 6) was 68 ± 1 nM, the “% Retention” value (L1210.Hyor) was 42% and the CC50 (L1210.Hyor; [9]) was 45 nM. For the same compound, the IC50 (L1210.Hyor; [10]) was 31 ± 6.4 nM, the “IC50(L1210.Hyor)/IC50(L1210/0)” value (L1210.Hyor; Table 7) was 2.2 and the CC50 (HeLa/TK^−; Homo sapiens, HeLa, Table 1) was 1400 ± 400 nM. The IC50 (HeLa/TK^−; Homo sapiens, HeLa, Table 6) was 1400 ± 400 nM, the CC50 (Cem/TK^−; [4]) was 1100 ± 200 nM and the IC50 (Cem/TK^−; [16]) was 1100 ± 200 nM.
For `C[C@H](NP(=O)(OC[C@H]1O[C@@H](n2cc(F)c(=O)[nH]c2=O)CC1O)Oc1cccc2ccccc12)C(=O)OC1CCOCC1` (stereo partly drawn) [CPF 580, 5-Fluoro-2′-deoxyuridine-5′-O-[1-naphthyl-(tetrahydropyroxy-L-alaninyl)]phosphate], the CC50 (L1210/0; [1]) was 38 ± 14 nM, the CC50 (L1210/0; [11]) was 48 nM and the IC50 (L1210/0; [12]) was 38 ± 14 nM. It also gave an IC50 (L1210/0; [13]) of 41 ± 2.8 nM, a CC50 (L1210/TK^−; [2]) of 27000 ± 6000 nM and an IC50 (L1210/TK^−; [14]) of 27000 ± 6000 nM. For the same compound, the CC50 (Cem/0; [3]) was 110 ± 20 nM, the IC50 (Cem/0; [15]) was 110 ± 20 nM and the CC50 (HeLa; Homo sapiens, HeLa, Table 1) was 130 ± 40 nM. For the same compound, the IC50 (HeLa; Homo sapiens, HeLa, Table 6) was 130 ± 40 nM, the “% Retention” value (L1210.Hyor) was 12% and the CC50 (L1210.Hyor; [9]) was 410 nM. The IC50 (L1210.Hyor; [10]) was 480 ± 110 nM, the “IC50(L1210.Hyor)/IC50(L1210/0)” value (L1210.Hyor; Table 7) was 11.7 and the CC50 (HeLa/TK^−; Homo sapiens, HeLa, Table 1) was 15000 ± 7000 nM. The IC50 (HeLa/TK^−; Homo sapiens, HeLa, Table 6) was 15000 ± 7000 nM, the CC50 (Cem/TK^−; [4]) was 43000 ± 12000 nM and the IC50 (Cem/TK^−; [16]) was 43000 ± 12000 nM.
